# In publication PMC6562610, “Inhibition of Hedgehog Signaling in Fibroblasts, Pancreatic, and Lung Tumor Cells by Oxy186, an Oxysterol Analogue with Drug-Like Properties” (Cells, 2019):
# “Also recorded” adds a separate entry of the source.
# What was measured:
# [1] = tested on: CAPAN-1 cells; assay: Cell counting assay, CAPAN-1; format: cell-based, human; conditions: 96 h
# Method: (§1) A549 and H2030 cells cultured in 12-well plates at 20% confluence were treated with Oxy186, HPI-1, Gant61, or GDC0449 for 96 hours and then trypsinized and suspended in fresh medium. An aliquot of cell suspension was applied to a hemocytometer and counted under a microscope.
# (§2) Figure 6 Inhibition of human pancreatic and lung cancer cell proliferation by Oxy186. (a,c) A549, (b) and (d) H2030, (e) PANC-1, and (f) CAPAN-1 cells were treated with the compounds as indicated in RPMI 1640 (a–d) or DMEM (e,f) containing 5% FBS for 96 h and then were trypsinized and counted. Data from a representative experiment are reported as the mean of triplicate determinations ± SD (* p < 0.05 vs. Control; ** p < 0.01 vs. control).
# [2] = tested on: Shh expression in CAPAN-1 cells; assay: Inhibition of Shh expression in CAPAN-1 cells, Q-RT-PCR; format: cell-based, human; conditions: 72 h
# From the text: (§3) NIH3T3-E1 fibroblasts were obtained from ATCC (Manassas, VA) and cultured, as previously described. CAPAN-1 and PANC-1 human pancreatic cancer cells were obtained from ATCC and cultured in Dulbecco’s Modified Eagle Medium (DMEM) containing 10% heat-inactivated fetal bovine serum (FBS) (Hyclone Laboratories, Logan, UT, USA) and antibiotics, as previously described. The human lung cancer cell lines A549 and H2030 were obtained from ATCC and cultured in RPMI-1640 containing 10% FBS. The human hepatoma cell line HepG2 was obtained from ATCC and cultured in DMEM containing 10% FBS. Mouse embryonic fibroblasts (MEFs) from suppressor of fused (Sufu) null mice (Sufu^−/−) were provided by Dr. Philip Beachy of Stanford University and cultured in DMEM containing 10% FBS. Gant61, SB431542 and vismodegib (GDC0449) were obtained from Cayman Chemical, HPI-1 was obtained from Abcam. For experiments, cells were treated in a medium containing 5% FBS.
# (§4) Total RNA was extracted with the RNeasy Plus Mini Kit from Qiagen, according to the manufacturer’s instructions. One microgram of RNA was reverse-transcribed using an iScript Reverse Transcription Supermix from Bio-Rad, to make single-stranded cDNA. The cDNAs were then mixed with Qi SYBR Green Supermix (Bio-Rad, Hercules, CA, USA) for quantitative RT-PCR assay using a Bio-Rad I-cycler IQ quantitative thermocycler. All PCR samples were prepared in triplicate wells in a 96-well plate. […] Fold changes in gene expression were calculated using the ΔΔCt method. […]
# (§5) Figure 4 Inhibition of Gli and Shh expression in (a) PDAC (PANC-1) and (b,c) human lung cancer cells (A549 and H2030, respectively) by Oxy186. Cells were treated with the compounds as indicated in DMEM or RPMI 1640 containing 5% FBS for (a) 48 or (b,c) 72 hours, then RNA was extracted and analyzed by Q-RT-PCR for the expression of Gli1 and normalized to GAPDH expression. (d) CAPAN-1 cells were treated with the compounds, as indicated, in DMEM containing 5% FBS for 72 h, then RNA was extracted and analyzed by Q-RT-PCR for the expression of Shh and normalized to GAPDH expression. […]
# [3] = tested on: Gli1 expression in H2030 cells; assay: Inhibition of Gli1 expression in H2030 cells, Q-RT-PCR; format: cell-based, human; conditions: 72 h
# From the text: as §3, §4, §5
# [4] = tested on: Gli1 expression in A549 cells; assay: Inhibition of Gli1 expression in A549 cells, Q-RT-PCR; format: cell-based, human; conditions: 72 h
# From the text: as §3, §4, §5
# [5] = tested on: A549 cells; assay: Cell counting assay, A549; format: cell-based, human; conditions: 96 h
# Method: as §1, §2
# [6] = tested on: Gli1 expression in PANC-1 cells; assay: Inhibition of baseline Gli1 expression in PANC-1 cells, Q-RT-PCR; format: cell-based, human; conditions: 48 h
# From the text: as §3, §4, §5
# [7] = tested on: PANC-1 cells; assay: Cell counting assay, PANC-1; format: cell-based, human; conditions: 96 h
# Method: as §1, §2
# [8] = tested on: H2030 cells; assay: Cell counting assay, H2030; format: cell-based, human; conditions: 96 h
# Method: as §1, §2
# [9] = tested on: Hh target gene Gli1 expression in NIH3T3-E1 cells; assay: Inhibition of CAPAN-1 conditioned medium (ligand)-induced Gli1 mRNA expression, Q-RT-PCR; format: cell-based; conditions: NIH3T3 cells activated by CAPAN-1 CM Hh ligands, 72 h
# From the text: as §3
# Growth medium in confluent […] tissue culture plates of CAPAN-1 cells were replaced with 10 ml of fresh growth medium and cells were incubated for a total of 7 days. Conditioned medium (CM), containing Shh and Ihh, was collected and spun down to remove any detached cells and debris, aliquoted, and stored frozen at −80 °C [37].
# as §4, with “thermocycler.” for “thermocycler. All PCR samples were prepared in triplicate wells in a 96-well plate.”
# Figure 3 Inhibition of ligand-induced Hedgehog signaling. […] After 72 h, RNA was extracted and analyzed by Q-RT-PCR for the expression of Hh target genes Gli1 (a,b,d) and Ptch1 (c), and normalized to Oaz1 expression. […] Luciferase activity was measured and normalized to the Renilla luciferase activity. […]
# [10] = tested on: LXR target gene Abca1; assay: Induction of LXR target gene Abca1 in NIH3T3 cells, Q-RT-PCR; format: cell-based, mouse
# Method: (§6) Total RNA was extracted with the RNeasy Plus Mini Kit from Qiagen, according to the manufacturer’s instructions. One microgram of RNA was reverse-transcribed using an iScript Reverse Transcription Supermix from Bio-Rad, to make single-stranded cDNA. The cDNAs were then mixed with Qi SYBR Green Supermix (Bio-Rad, Hercules, CA, USA) for quantitative RT-PCR assay using a Bio-Rad I-cycler IQ quantitative thermocycler. All PCR samples were prepared in triplicate wells in a 96-well plate. After 40 cycles of PCR, melt curves were examined in order to ensure primer specificity. Fold changes in gene expression were calculated using the ΔΔCt method. Primers used for mouse were as follows: Oaz1 (5’-CCACTGCTTCGCCAGAGAG-3’) and (5’-CCCGGACCCAGGTTACTA-3’), Gli1 (5’-[…]-3’ and 5’-[…]-3’), Ptch1 (5’-CCATCGGCGACAAGAACC-3’ and 5’-[…]-3’), Hip (5’-[…]-3’ and 5’-[…]-3’), and Abca1 (5’-[…]-3’ and 5’-[…]-3’). Primers used for human were as follows: SREBP1c (5’-CGCTCCTCCATCAATGACA-3’ and 5’-[…]-3’), GAPDH (5’-[…]-3’ and 5’-[…]-3’), SHH (5’-CGGAGCGAGGAAGGGAAAG-3’) and (5’-[…]-3’), and GLI1 (5’-GAAGCCGAGCCGAGTATC-3’ and 5’-[…]-3’).
# Figure 7 Induction of LXR target gene expression by Oxy186 and LXR agonist TO901317 (TO). (a) NIH3T3 cells and (b) HepG2 cells were treated with DMEM containing 5% FBS in the presence or absence of TO (2 µM) or Oxy186 (10 µM). […] Data from a representative experiment are reported as the mean of triplicate determinations ± SD (** p < 0.01 vs. control).
# [11] = Metabolic stability in mouse liver microsomes; format: in vitro ADME
# [12] = Pharmacokinetic study in mice, single oral dose; format: in vivo, balb/c mice; conditions: Figure 8b drug-like properties summary
# Method: In an initial assessment of the drug-like properties of Oxy186, we performed a pharmacokinetic (PK) study in mice. Oxy186, formulated in 4% ethanol, 15% DMSO, and 81% corn oil, was administered to balb/c mice by oral gavage as a single dose of 50 mg/kg.
# Figure 8 Drug-like properties of Oxy186. (a) A single dose of Oxy186 at 50 mg/kg, formulated in 4% ethanol/ 15% DMSO/ 81% corn oil, was administered to balb/c mice by oral gavage. Plasma samples were taken at 10 min, 30 min, 1, 2, 4, 6, 8, and 24 h, followed by LC/MS analysis of the plasma. (b) Evolution of Oxy186 from parent compound Oxy16 and their drug-like properties.
# [13] = Metabolic stability in human liver microsomes; format: in vitro ADME
# [14] = tested on: LXR target gene SREBP1c; assay: Induction of LXR target gene SREBP1c in HepG2 cells, Q-RT-PCR; format: cell-based, human; conditions: 2 µM, 72 h
# Method: as §6
# Figure 7 Induction of LXR target gene expression by Oxy186 and LXR agonist TO901317 (TO). (a) NIH3T3 cells and (b) HepG2 cells were treated with DMEM containing 5% FBS in the presence or absence of TO (2 µM) or Oxy186 (10 µM). […]
smiles,measurement,setting,value
"CS(=O)(=O)c1ccc(C(=O)Nc2ccc(Cl)c(-c3ccccn3)c2)c(Cl)c1 [GDC0449, vismodegib]",Anti-proliferation effect,[1],marginally effective
same,Inhibition of Shh expression,[2],"inhibitory effects on Shh expression in CAPAN-1 cells, but to a lesser extent"
same,Inhibition of expression of Gli1,[3]; 10 µM,significantly inhibited
same,Inhibition of expression of Gli1,[4]; 10 µM,significantly inhibited
same,Inhibition of cell proliferation,[5]; 10 µM,not
same,Inhibition of high baseline expression of Gli1,[6]; 10 µM,did not have a similar effect
CN(C)c1ccccc1CN1CCCN(Cc2ccccc2N(C)C)C1c1ccncc1 [Gant61],Anti-proliferation effect,[1],significant anti-proliferation effects
same,Inhibition of Shh expression,[2],"inhibitory effects on Shh expression in CAPAN-1 cells, but to a lesser extent; also recorded: significant inhibition"
same,Inhibition of expression of Gli1,[3]; 20 µM,significantly inhibited
same,Inhibition of expression of Gli1,[4]; 20 µM,significantly inhibited
same,Anti-proliferation effect,[7],significant anti-proliferation effects
same,Inhibition of cell proliferation,[5]; 20 µM,significantly inhibited
same,Inhibition of high baseline expression of Gli1,[6]; 20 µM,significantly inhibited
same,Anti-proliferative effect,[8],significant anti-proliferative effect
"CC(C)CCC(O)C(C)(O)C1CCC2C3CC=C4CC(O)CCC4(C)C3CCC21C [Oxy16, 20-α, 22(R)-dihydroxycholesterol, reference compound]",IC50,[9],> 5 µM
same,LXR agonism (Figure 8b summary),[10]; Figure 8b drug-like properties summary,Stronger LXR agonist
same,remaining at 1 h,"[11]; 60 min, read-out: MLM, % Remaining after 60 min",5%
same,half-life,"[11]; read-out: MLM, Half-Life",14 min
same,In vivo availability / stability (Figure 8b summary),[12],Unstable in vivo
same,"HLM, Half-Life",[13],15 min
same,remaining at 1 h,"[13]; 60 min, read-out: HLM, % Remaining after 60 min",6%
same,half-life,"[13]; human, liver microsomes, read-out: HLM, Half-Life",< 15 min
"O=S(=O)(c1ccccc1)N(CC(F)(F)F)c1ccc(C(O)(C(F)(F)F)C(F)(F)F)cc1 [TO901317, reference compound]",Induction of expression of SREBP1c,[14],significantly induced
same,Induction of expression of LXR target gene Abca1,"[10]; NIH3T3-E1 cells, 2 µM, 72 h",significantly induced
